Where two headings read alike, the source gives them in different places.
Experiments:
[1] = system: multi-drug resistant strains of Enterobacteriaceae, including those producing serine carbapenemases; test: Checkerboard MIC of Biapenem alone or in combination with Compound I at fixed concentrations (Example 4); format: cell-based
Procedure: The evaluation of Compound I in combination with the carbapenem antibiotic Biapenem against multi-drug resistant strains of Enterobacteriaceae, including those producing serine carbapenemases were also conducted. Antibiotic potentiation activity of Compound I was studied in checkerboard MIC experiments and time-kill assays. The MICs of Biapenem were […]) against characterized and engineered isolates producing various beta-lactamases, as well as in geographically diverse panels of multi-drug resistant strains of Enterobacteriaceae (including strains that express the most relevant beta-lactamases).

in vivo = test: in vivo; set-up: species or system Swiss-Webster mice; settings: mouse, ip
Procedure: Example 2 provides a summary of two pharmacokinetic studies of Biapenem conducted in Swiss-webster mice. The pharmacokinetics of 100 mg/kg and 25 mg/kg of Biapenem via the intraperitoneal route was discussed below.
Biapenem power was purchased from Hisun Pharmaceuticals. 20 mg of Biapenem was dissolved in 0.1 M NaH2PO4 for a basic stock solution. For animal studies, this stock solution was further diluted in 0.9% saline to the appropriate concentration.
The specifications for animals used on this study were as follows: • Species: Mouse • Strain: CFW (Swiss) • Gender: Female • Source: Harlan Laboratories (Livermore, Calif.) • Number of Animals: 33 for each dose • Body Weight Range: 18-22 g at the start of the study
After acclimation, mice were administered a single intraperitoneal dose of biapenem at 25 or 100 mg/kg. […] Blood samples (one sample per animal) were collected by cardiac puncture in a heparin containing tube. The collected heparin tubes were centrifuged within 5 min of collection at 12000 g for 5 min to obtain plasma. The plasma samples were stored on −80° C. until analyzed.
Biapenem standard curves were prepared in 50% plasma-50% 1M MOPS buffer, pH=7.4 from 1 to 250 ug/mL. 20 uL of sample or standard was added into a 96-well deep well plate. Then 500 uL of 10% water-45% methanol-45% acetonitrile containing 2 ug/mL of meropenem was used as an internal standard. The plate was vortexed for 15 min. at 3,000 RPM. 50 uL of supernatant was removed and added 300 uL of water. 10 uL of samples were injected onto an HPLC-MS system for quantification.
The HPLC-MS conditions for the Biapenem plasma analysis are as follows: • Column: Supelco Discovery HS F5 or equivalent pentafluorophenyl column, 5 um, 50×2.1 mm. • Flow rate: 0.6 mL/min. • Mobile phase A: 0.1% formic acid in water. • Mobile phase B: 0.1% formic acid in acetonitrile. • Gradient: 5-70% B in 1.9 min. • Mass spectrometer: Positive ion mode with electrospray ionization. • MS/MS: Biapenem-Q1-m/e=350.8, Q3-m/e=110.1. • meropenem-Q1-m/e=384.1, Q3-m/e=141.1.
Serum concentrations were determined using HPLC. Serum concentrations were fit by using Non-compartmental model of WinNonlin Software (Pharsight. Version 5.3, Mountain View, Calif.).

[2] = system: carbapenem-resistant, KPC-producing K. pneumoniae; test: Mouse model of thigh infection, Biapenem +/- Compound I (Example 6); format: in vivo; settings: IP 50 mpk Biapenem +/- 50 mpk Compound I every two hours for 24 hours
Procedure: Example 6 provides the in vivo efficacy study of the carbapenem Biapenem in combination with Compound I in mouse models of pulmonary and thigh infection due to the carbapenem-resistant, KPC-producing K. pneumoniae.
Four K. pneumoniae strains with Biapenem MICs ranging between 0.25-64 mg/L were used. Neutropenic mice were infected with ˜10^5 CFU/lung or ˜10^6 CFU/thigh. Intraperitoneal treatments with 50 mpk Biapenem+/−50 mpk Compound I were initiated 2 hours post-infection as a single dose or continued every two hours for 24 hours. Mice were sacrificed on designated time points and colony counts in tissue determined.

[3] = Single-dose pharmacokinetics of Compound I, intraperitoneal administration to Swiss-Webster mice (Example 5); format: in vivo; settings: plasma, Mouse; for CL/F: read-out: CL or CL/F (converted)
Procedure: (§1) Example 5 provides the single-dose pharmacokinetic studies of Compound I inpreclinical species, including intraperitoneal administration to Swiss-Webster mice and intravaneous administration to Sprague-Dawley rats, Beagle dogs, and Cynomologus monkeys.
(§2) Intravaneous doses of Compound I were administered as 30-minute infusions. The pharmacokinetics of Compound I were also studied with coadministration of the carbapenem, Biapenem. Compound I concentrations were determined using an LC-MS detection method.

[4] = Single-dose pharmacokinetics of Compound I, intravenous 30-minute infusion in Sprague-Dawley rats (Example 5); format: in vivo; settings: Rat; for AUC / Cmax / half-life: Sprague-Dawley, in vivo
Procedure: as §1, §2

[5] = Single-dose pharmacokinetics of Compound I across all preclinical species, summary statements incl. coadministration of Biapenem (Example 5); format: in vivo
Procedure: as §1, §2

[6] = Single-dose pharmacokinetics of Compound I, intravenous 30-minute infusion in Beagle dogs (Example 5); format: in vivo; settings: Dog; for AUC / Cmax / half-life: Beagle, in vivo
Procedure: as §1, §2

[7] = female, CFW (Swiss-Webster), 25 mg/kg
[8] = female, CFW (Swiss-Webster), 100 mg/kg
[9] = female, CFW (Swiss-Webster), 100 mg/kg, Calc. Conc. (plasma concentration)

Q: With C[C@@H](O)[C@H]1C(=O)N2C(C(=O)[O-])=C(SC3Cn4cnc[n+]4C3)[C@H](C)[C@H]12 (stereo partly drawn) [Biapenem] as the compound, how does the MIC ([1]; read-out: Biapenem MICs in the presence of Compound I, in the presence of 0.3 to 5 μg/ml of Compound I, characterized strains of Enterobacteriaceae with serine carbapenemases) read?
A: < 0.25 µg/mL

Q: What about the MIC ([1]; read-out: Biapenem MICs, Biapenem alone, KPC-producing strains including those expressing multiple classes of enzymes) of the same compound?
A: 8 to 64 µg/mL

Q: What about the MIC ([1]; read-out: Biapenem MICs, Biapenem alone, KPC-producing strains used in the time-kill studies) of the same compound?
A: 16 to 32 µg/mL

Q: What about the MIC90 ([1]; read-out: MIC90 of Biapenem with Compound I) of the same compound?
A: 0.5 µg/mL

Q: And the Cl (in vivo; [7])?
A: 26.7 mL/min/kg

Q: And the Cmax (in vivo; [7])?
A: 31200 ng/mL

Q: What about the half-life (in vivo; [7]) of the same compound?
A: 10.2 min

Q: What about the Cl (in vivo; [8]) of the same compound?
A: 16 mL/min/kg

Q: What about the Cmax (in vivo; [8]) of the same compound?
A: 286000 ng/mL

Q: What about the half-life (in vivo; [8]) of the same compound?
A: 12.6 min

Q: And the concentration at 0.08 h (in vivo; [9])?
A: 1770 ng/mL

Q: And the concentration at 0.25 h (in vivo; [9])?
A: 68400 ng/mL

Q: And the concentration at 0.5 h (in vivo; [9])?
A: 120 ng/mL

Q: And the concentration at 0.75 h (in vivo; [9])?
A: 30500 ng/mL

Q: What about the concentration at 3 h (in vivo; [9]) of the same compound?
A: 12.3 ng/mL

Q: What about the concentration at 4 h (in vivo; [9]) of the same compound?
A: 10.2 ng/mL

Q: And the AUC (in vivo; 25 mg/kg)?
A: 15.56 mg·h/kg

Q: And the “Calc. Conc. (plasma concentrations of Biapenem)” value (in vivo; 25 mg/kg)?
A: No Peak

Q: What about the AUC (in vivo; 100 mg/kg) of the same compound?
A: 103.55 mg·h/kg

Q: What about the “Change in Log CFU/thigh ± SD @ 24 h” value ([2]; strain ATCC 43816, neutropenic mice) of the same compound?
A: −1.09 ± 0.30 Log CFU/thigh

Q: What about the “Change in Log CFU/thigh ± SD @ 24 h” value ([2]; strain KP1004, neutropenic mice) of the same compound?
A: +0.71 ± 0.10 Log CFU/thigh

Q: And the “Change in Log CFU/thigh ± SD @ 24 h” value ([2]; strain KP1061, neutropenic mice)?
A: +1.67 ± 0.09 Log CFU/thigh

Q: And the “Change in Log CFU/thigh ± SD @ 24 h” value ([2]; strain KP1074, neutropenic mice)?
A: +0.98 ± 0.46 Log CFU/thigh

Q: Which AUC ([3]; 5 mg/kg IP) does the source give for O=C(O)C[C@@H]1CC[C@H](NC(=O)Cc2cccs2)B(O)O1 [Compound I] here?
A: 3100 ng·h/mL

Q: What about the Cmax ([3]; 5 mg/kg IP) of the same compound?
A: 8260 ng/mL

Q: And the half-life ([3]; 5 mg/kg IP)?
A: 9.6 min

Q: What about the CL/F ([3]; 5 mg/kg IP) of the same compound?
A: 26.8 mL/min/kg

Q: What about the AUC ([3]; 15 mg/kg IP) of the same compound?
A: 8300 ng·h/mL

Q: What about the Cmax ([3]; 15 mg/kg IP) of the same compound?
A: 19500 ng/mL

Q: What about the half-life ([3]; 15 mg/kg IP) of the same compound?
A: 12 min

Q: What about the CL/F ([3]; 15 mg/kg IP) of the same compound?
A: 30 mL/min/kg

Q: What about the AUC ([3]; 50 mg/kg IP) of the same compound?
A: 31400 ng·h/mL

Q: What about the Cmax ([3]; 50 mg/kg IP) of the same compound?
A: 67100 ng/mL

Q: What about the half-life ([3]; 50 mg/kg IP) of the same compound?
A: 15 min

Q: And the CL/F ([3]; 50 mg/kg IP)?
A: 26.7 mL/min/kg

Q: And the “CL or CL/F” value ([4]; 20 mg/kg IV)?
A: 28.3 ± 1 mL/min/kg

Q: And the AUC ([4]; 20 mg/kg IV)?
A: 12200 ± 430 ng·h/mL

Q: What about the Cmax ([4]; 20 mg/kg IV) of the same compound?
A: 19800 ± 840 ng/mL

Q: And the half-life ([4]; 20 mg/kg IV)?
A: 96 ± 10.2 min

Q: And the AUC ([4]; 50 mg/kg IV)?
A: 28200 ± 2000 ng·h/mL

Q: What about the Cmax ([4]; 50 mg/kg IV) of the same compound?
A: 45900 ± 2000 ng/mL

Q: What about the half-life ([4]; 50 mg/kg IV) of the same compound?
A: 270 ± 80.4 min

Q: What about the Pharmacokinetic properties ([5]; across all species (mice, rats, dogs, monkeys), single dose) of the same compound?
A: linear and favorable pharmacokinetic properties

Q: And the “Dose dependence of clearance and volume of distribution” value ([5]; across preclinical species, single dose)?
A: independent of dose

Q: What about the “PK drug interactions between Compound I and Biapenem” value ([5]; coadministration of Biapenem) of the same compound?
A: No PK drug interactions

Q: And the AUC ([6]; 2 mg/kg IV)?
A: 6130 ± 650 ng·h/mL

Q: What about the Cmax ([6]; 2 mg/kg IV) of the same compound?
A: 6490 ± 310 ng/mL

Q: And the half-life ([6]; 2 mg/kg IV)?
A: 39.6 ± 3.6 min

Q: What about the AUC ([6]; 6 mg/kg IV) of the same compound?
A: 18400 ± 2360 ng·h/mL

Q: And the Cmax ([6]; 6 mg/kg IV)?
A: 19600 ± 1420 ng/mL

Q: What about the half-life ([6]; 6 mg/kg IV) of the same compound?
A: 42.6 ± 5.4 min

Q: And the AUC ([6]; 20 mg/kg IV)?
A: 73600 ± 5380 ng·h/mL

Q: What about the Cmax ([6]; 20 mg/kg IV) of the same compound?
A: 66800 ± 6160 ng/mL

Q: And the half-life ([6]; 20 mg/kg IV)?
A: 91.8 ± 43.8 min

Q: What about the “CL or CL/F” value ([6]; 2 mg/kg IV) of the same compound?
A: 5.5 ± 0.5 mL/min/kg

Q: What about the “CL or CL/F” value ([6]; 6 mg/kg IV) of the same compound?
A: 5.5 ± 0.67 mL/min/kg

Q: What about the “CL or CL/F” value ([6]; 20 mg/kg IV) of the same compound?
A: 4.5 ± 0.33 mL/min/kg

— patent US11007206B2, “Cyclic boronic acid ester derivatives and therapeutic uses thereof” (Melinta Subsidiary Corp., priority 2012, dated 2021)
